Measurements from patent publication US9937217B2, “Method of inhibiting ABCG2 and related treatments” (The United States of America, as represented by the …, priority 2007, dated 2018).
“And” between values parts separate entries of the source, which are not always exact repeats. Equal entries are not always repeated. Where two headings read alike, the source gives them in different places.

How the values were obtained:
[1] = biological target: T1, ABCG2 (Homo sapiens, UniProt Q9UNQ0); assay: Pheophorbide a (PhA) accumulation screening assay; assay type: cell-based
T1 sequence (Q9UNQ0 1-655): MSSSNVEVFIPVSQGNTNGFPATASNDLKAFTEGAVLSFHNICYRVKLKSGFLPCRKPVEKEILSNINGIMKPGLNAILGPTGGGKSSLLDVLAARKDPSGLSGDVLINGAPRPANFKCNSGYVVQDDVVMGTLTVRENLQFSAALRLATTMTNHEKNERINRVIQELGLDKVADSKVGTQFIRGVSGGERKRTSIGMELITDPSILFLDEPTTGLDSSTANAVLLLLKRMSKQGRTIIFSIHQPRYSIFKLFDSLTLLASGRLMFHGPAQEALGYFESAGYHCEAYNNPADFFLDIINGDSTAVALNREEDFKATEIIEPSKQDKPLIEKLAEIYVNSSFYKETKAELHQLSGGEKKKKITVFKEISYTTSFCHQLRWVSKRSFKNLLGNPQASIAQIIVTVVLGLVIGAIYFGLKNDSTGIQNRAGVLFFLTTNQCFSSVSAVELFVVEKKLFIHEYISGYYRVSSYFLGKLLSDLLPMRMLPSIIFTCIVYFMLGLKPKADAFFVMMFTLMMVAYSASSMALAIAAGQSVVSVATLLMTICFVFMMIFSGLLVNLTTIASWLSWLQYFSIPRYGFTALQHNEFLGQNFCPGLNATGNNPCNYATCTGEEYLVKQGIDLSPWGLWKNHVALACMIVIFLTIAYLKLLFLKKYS
Description: (§1) To prepare the cell culture, NCI-H460 human lung non-small-cell carcinoma cells (National Cancer Institute, Frederick, Md.) are selected for over-expression of ABCG2 by maintenance in RPMI1640/10% FBS supplemented with 20 nM mitoxantrone (Robey et al., Biochim. Biophys. Acta, 1512: 171-82 (2001)). After removal of mitoxantrone, cells are further grown in the same medium without mitoxantrone for 5-30 days. These cells are designated NCI-H460/MX20. Parental cells (low ABCG2 expression) (Robey et al., vide supra) are maintained in the same medium without mitoxantrone. ABCG2-transfected or MDR1-transfected (i.e. Pgp-expressing) HEK293 cells are maintained in 2 mg/ml G418 as previously described (Robey et al., Br. J. Cancer, 89: 1971-8 (2003)). MRP1-transfected HEK293 cells are maintained in 5 μM etoposide. MCF-7 FLV1000 cells are maintained in Richter's medium with 10% FCS and Pen/strep with 1000 nM flavopiridol (Robey et al., Clin. Cancer Res., 7: 145-52 (2001)).
Accumulation of pheophorbide a, a fluorescent ABCG2 substrate (Jonker et al., Proc. Natl. Acad. Sci. USA, 99: 15649-54 (2002) and Robey et al., Cancer Res., 64: 1242-6 (2004)), formed the basis of the assay for inhibitors of ABCG2 activity (Henrich et al., J. Biomol. Screen, 11: 176-83 (2006)). Briefly, NCI-H460/MX20 cells are transferred to black wall, clear bottom 384-well polylysine-coated assay plates (Corning, Corning, N.Y.) and allowed to attach for several hours. Pheophorbide a (1 μM final concentration) is added immediately followed by compounds or vehicle (DMSO/PBS) control and incubated an additional 18 h. After removal of medium and washing with PBS containing Ca^2+ and Mg^2+, fluorescence intensity is read on a Tecan Safire fluorescence plate reader in bottom read mode, 395 nm excitation, 670 nm emission. Each plate has control wells containing 10 μM (final concentration) FTC. Data are normalized to FTC and reported as % of FTC fluorescence.

[2] = test system: NCI-H460/MX20 cells; assay: Sensitization of ABCG2-overexpressing cells to killing by mitoxantrone (XTT assay); assay type: cell-based, human; settings: for MX sensitization: % NCI-H460/MX20 cell survival in the presence of compound and mitoxantrone: 10 μM compound
Description: After removal of mitoxantrone, cells are further grown in the same medium without mitoxantrone for 5-30 days. These cells are designated NCI-H460/MX20. Parental cells (low ABCG2 expression) (Robey et al., vide supra) are maintained in the same medium without mitoxantrone. […] MRP1-transfected HEK293 cells are maintained in 5 μM etoposide.
Final DMSO concentration is 0.2% (v/v).

[3] = biological target: T1, ABCG2; assay: BODIPY-prazosin efflux, ABCG2-transfected HEK293 cells (flow cytometry); settings: 10 μM compound
Description: (§2) APC fluorescence is measured with a 635 nm read diode laser and 561 nm longpass filter. At least 10000 events are collected. Dead cells are eliminated based on propidium iodide exclusion.
(§3) Cells are then washed and incubated in substrate-free medium continuing with or without inhibitor for 1 h.

[4] = biological target: T1, ABCG2; assay type: cell-based; settings: compound, ABCG2-transfected HEK293
Description: At least 10000 events are collected. Dead cells are eliminated based on propidium iodide exclusion.
Five compounds are examined for their ability to increase surface staining of the 5D3 antibody.
The 5D3 shift assay is performed as described by Ozvegy-Laczka et al. with minor modifications. […] Cells are subsequently washed and incubated with APC-labeled goat anti-mouse secondary antibody (1:35) for 30 min after which the cells are washed and analyzed.

[5] = biological target: T1, ABCG2; assay: Photoaffinity labeling of ABCG2 with [125I]-IAAP in MCF-7 FLV1000 membranes; assay type: binding; settings: 20 μM compound; for activity at 10 min, 20 µM: human, crude membranes of MCF-7 FLV1000 cells expressing ABCG2, pH 7.5, probe [125I]-IAAP, 3-6 nM (2200 Ci/mmole), read-out: Blocking of 125I-IAAP binding: % of control binding
Description: ABCG2 expressed in MCF-7 FLV1000 cells is photo-labeled with [^125I]-IAAP as described previously (Shukla et al., Biochemistry, 45: 8940-51 (2006)). Briefly, crude membranes (1 mg protein/me of MCF-7 FLV1000 cells are incubated with 20 μM of the indicated compound for 10 min at room temperature in 50 mM Tris-HCl, pH 7.5. 3-6 nM [^125I]-IAAP (2200 Ci/mmole) (PerkinElmer Life Sciences, Wellesley, Mass.) is added, and the samples are incubated for an additional 5 min under subdued light. The samples are then exposed to ultraviolet (UV, 365 nm) light for 10 min, and the labeled ABCG2 is immunoprecipitated using BXP-21 antibody. The radioactivity incorporated into the ABCG2 band is quantified using the STORM 860 PhosphorImager system (Molecular Dynamics, Sunnyvale, Calif.) and ImageQuaNT software (Molecular Dynamics).

[6] = biological target: Pgp (Homo sapiens, UniProt P08183)
Sequence of Pgp (P08183 whole entry): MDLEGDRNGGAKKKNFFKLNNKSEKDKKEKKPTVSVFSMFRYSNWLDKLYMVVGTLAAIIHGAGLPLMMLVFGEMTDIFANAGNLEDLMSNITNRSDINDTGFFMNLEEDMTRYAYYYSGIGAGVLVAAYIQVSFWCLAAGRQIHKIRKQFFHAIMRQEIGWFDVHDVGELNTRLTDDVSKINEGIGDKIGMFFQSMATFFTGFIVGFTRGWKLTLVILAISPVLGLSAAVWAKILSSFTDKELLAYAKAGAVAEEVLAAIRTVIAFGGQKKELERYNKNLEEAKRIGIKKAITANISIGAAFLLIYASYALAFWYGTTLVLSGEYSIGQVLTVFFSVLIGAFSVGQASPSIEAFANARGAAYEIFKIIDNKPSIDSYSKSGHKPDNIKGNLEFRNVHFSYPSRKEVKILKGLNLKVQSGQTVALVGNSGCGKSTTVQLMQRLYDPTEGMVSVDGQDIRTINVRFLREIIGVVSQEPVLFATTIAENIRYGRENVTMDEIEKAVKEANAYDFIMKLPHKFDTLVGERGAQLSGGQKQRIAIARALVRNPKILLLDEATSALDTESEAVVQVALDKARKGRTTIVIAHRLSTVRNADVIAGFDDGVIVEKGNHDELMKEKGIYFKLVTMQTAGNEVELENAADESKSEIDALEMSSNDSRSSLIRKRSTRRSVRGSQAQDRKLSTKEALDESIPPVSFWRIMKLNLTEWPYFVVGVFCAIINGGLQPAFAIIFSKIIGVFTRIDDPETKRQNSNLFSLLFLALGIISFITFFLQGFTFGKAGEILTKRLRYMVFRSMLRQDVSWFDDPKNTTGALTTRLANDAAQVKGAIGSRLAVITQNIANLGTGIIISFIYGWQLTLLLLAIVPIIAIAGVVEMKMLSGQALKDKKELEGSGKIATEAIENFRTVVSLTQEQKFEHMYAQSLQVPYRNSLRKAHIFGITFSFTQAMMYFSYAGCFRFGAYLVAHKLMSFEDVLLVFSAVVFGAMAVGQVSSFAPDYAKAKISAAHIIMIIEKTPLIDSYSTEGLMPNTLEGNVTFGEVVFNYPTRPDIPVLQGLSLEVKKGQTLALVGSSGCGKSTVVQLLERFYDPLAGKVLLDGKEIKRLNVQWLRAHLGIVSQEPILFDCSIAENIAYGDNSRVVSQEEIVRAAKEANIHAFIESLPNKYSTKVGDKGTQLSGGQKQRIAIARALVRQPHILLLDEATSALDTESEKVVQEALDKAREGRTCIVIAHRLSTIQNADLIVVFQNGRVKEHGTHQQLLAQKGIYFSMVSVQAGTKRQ
Description: as §2, §3

[7] = biological target: T2, MRP1 (Homo sapiens, UniProt P33527); assay: Calcein efflux, MRP1-transfected HEK293 cells (flow cytometry); assay type: cell-based; settings: 10 μM compound
T2 construct: expressed in transfected cells; host or cells: HEK293
T2 sequence (P33527 whole entry): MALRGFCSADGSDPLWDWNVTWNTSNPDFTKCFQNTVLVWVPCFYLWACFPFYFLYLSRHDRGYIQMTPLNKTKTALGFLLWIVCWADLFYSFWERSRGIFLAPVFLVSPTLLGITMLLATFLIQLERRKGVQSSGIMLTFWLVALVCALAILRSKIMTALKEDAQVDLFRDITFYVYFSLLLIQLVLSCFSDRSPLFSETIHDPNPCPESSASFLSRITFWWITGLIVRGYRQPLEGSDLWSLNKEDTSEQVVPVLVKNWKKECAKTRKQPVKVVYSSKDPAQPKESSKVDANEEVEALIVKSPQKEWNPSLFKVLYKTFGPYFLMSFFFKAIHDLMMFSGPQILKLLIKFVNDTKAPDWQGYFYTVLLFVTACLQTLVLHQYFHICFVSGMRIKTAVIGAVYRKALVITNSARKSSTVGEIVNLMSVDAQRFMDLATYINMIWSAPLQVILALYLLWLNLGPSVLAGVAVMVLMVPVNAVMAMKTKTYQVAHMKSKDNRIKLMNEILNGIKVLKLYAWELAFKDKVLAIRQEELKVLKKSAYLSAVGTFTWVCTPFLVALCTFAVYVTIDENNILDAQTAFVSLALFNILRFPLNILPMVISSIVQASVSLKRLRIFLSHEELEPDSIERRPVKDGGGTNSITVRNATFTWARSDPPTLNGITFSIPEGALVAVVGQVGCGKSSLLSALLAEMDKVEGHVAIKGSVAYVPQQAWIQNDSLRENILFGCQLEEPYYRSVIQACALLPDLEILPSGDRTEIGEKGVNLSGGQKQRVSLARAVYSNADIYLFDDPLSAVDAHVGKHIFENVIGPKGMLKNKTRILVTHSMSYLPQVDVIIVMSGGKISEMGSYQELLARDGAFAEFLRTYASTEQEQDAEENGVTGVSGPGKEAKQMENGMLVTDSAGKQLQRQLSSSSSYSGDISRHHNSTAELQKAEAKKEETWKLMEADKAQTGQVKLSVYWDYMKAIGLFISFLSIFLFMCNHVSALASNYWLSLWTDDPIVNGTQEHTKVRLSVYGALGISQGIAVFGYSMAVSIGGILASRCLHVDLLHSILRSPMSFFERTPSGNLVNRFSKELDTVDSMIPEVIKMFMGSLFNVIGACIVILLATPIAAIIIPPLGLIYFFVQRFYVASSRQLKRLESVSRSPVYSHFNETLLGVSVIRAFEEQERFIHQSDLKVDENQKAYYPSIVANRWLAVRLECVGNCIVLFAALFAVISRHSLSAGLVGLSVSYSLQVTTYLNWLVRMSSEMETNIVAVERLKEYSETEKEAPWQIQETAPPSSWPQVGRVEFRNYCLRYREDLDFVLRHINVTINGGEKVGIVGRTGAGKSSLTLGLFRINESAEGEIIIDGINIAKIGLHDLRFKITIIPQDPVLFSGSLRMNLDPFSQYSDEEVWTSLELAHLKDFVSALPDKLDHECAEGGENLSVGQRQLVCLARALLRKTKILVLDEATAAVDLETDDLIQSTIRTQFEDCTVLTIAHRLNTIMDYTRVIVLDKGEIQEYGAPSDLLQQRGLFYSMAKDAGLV
Description: as §2, §3

[8] = test system: NCI-H460 cells; assay: Mitoxantrone / compound cytotoxicity in parental cells (XTT assay); assay type: cell-based; settings: Homo sapiens, 48 h; unselected NCI-H460 cells, 30 μM mitoxantrone, 2 days, (sd); read-out: Cell numbers, % of control (vehicle), mitoxantrone alone
Description: as §1
The ability of compounds to sensitize NCI-H460/MX20 cells to killing by mitoxantrone is assessed as described in Henrich et al. (J. Biomol. Screen, 11: 176-83 (2006)). ABCG2 over-expressing cells or parental cells are treated with mitoxantrone in the presence or absence of 10 μM compound (or 1 μM FTC) and cell numbers assessed after 2 d by an XTT assay (Scudiero et al., Cancer Res., 48: 4827-33 (1988)). […]

[9] = biological target: T1, ABCG2; settings: NCI-H460/MX20 cells; Henrich et al., 2006; read-out: Pheophorbide a IC50 for FTC; cited from earlier work
[10] = NCI-H460/MX20 cells, PhA accumulation, read-out: Pheophorbide a IC50

| Structure (SMILES) | IC50 [1, 10] [µM] | Pheophorbide a total, % of FTC response ([1]; human, 18 h, 10 µM) [%] | BODIPY-prazosin efflux: treated/control ratio [3] | 5D3 staining: treated/control ratio [4] | activity at 10 min, 20 µM [5] [%] | Pgp inhibition, rhodamine efflux: treated/control ratio ([6]; human, 10 µM) | MRP1 inhibition, calcein efflux: treated/control ratio [7] | Pgp inhibition, rhodamine efflux: treated/control ratio ([6]; valspodar 3 μg/mL, positive control) | MX sensitization: % NCI-H460/MX20 cell survival in the presence of compound and mitoxantrone ([2]; 30 μM mitoxantrone, 2 d) [%] | IC50 [1] [µM] | Cell number, % of control, mitoxantrone alone ([2]; NCI-H460/MX20 cells, mitoxantrone treatment, (sd)) [%] | activity at 30 µM [8] [%] | Pheophorbide a total, % of FTC response ([1]; 10 μM compound, NCI-H460/MX20 cells, normalized to 10 μM FTC) [%] | MX sensitization: % NCI-H460/MX20 cell survival in the presence of FTC and mitoxantrone ([2]; 1 μM FTC, 30 μM mitoxantrone, 2 d) | Blocking of 125I-IAAP binding: % of control binding [5] [%] | IC50 [9] [µM] |
| --- | --- | --- | --- | --- | --- | --- | --- | --- | --- | --- | --- | --- | --- | --- | --- | --- |
| C/C=C/C[C@@H](C)C(=O)[C@H]1C(=O)N[C@@H](C(C)C)C(=O)N(C)CC(=O)N(C)[C@@H](CC(C)C)C(=O)N[C@@H](C(C)C)C(=O)N(C)[C@@H](CC(C)C)C(=O)N[C@@H](C)C(=O)N[C@H](C)C(=O)N(C)[C@@H](CC(C)C)C(=O)N(C)[C@@H](CC(C)C)C(=O)N(C)[C@@H](C(C)C)C(=O)N1C [valspodar, reference compound] |  |  |  |  |  |  |  | 14.9 |  |  |  |  |  |  |  |  |
| O=C1c2c(O)ccc(O)c2C(=O)c2c(NCCNCCO)ccc(NCCNCCO)c21 [mitoxantrone, reference compound] |  |  |  |  |  |  |  |  |  |  | 56.1±2.1 | 21.6 ± 1.6 |  |  |  |  |
| Cn1ncc2c(Nc3cccc(Cl)c3)nc(Nc3cccc(Cl)c3)nc21 [NSC11668] |  | 84.1 | 5.9 | 4.0 | 24.6 | 0.73 | 1.2 |  | 21.9 | 4.5 |  |  |  |  |  |  |
| COc1ccc2c3c([nH]c2c1)[C@H](C=C(C)C)N1C(=O)[C@@H]2CCCN2C(=O)[C@@H]1C3 [FTC, fumitremorgin C, reference compound] |  |  | 3.5 | 3.7 |  |  |  |  |  |  |  |  | 100 | 24.5±1.5% and 24.5% | 32.7 | 0.8 |

More lines, main results first:

| IC50 [1, 10] [µM] | Pheophorbide a total, % of FTC response ([1]; human, 18 h, 10 µM) [%] | BODIPY-prazosin efflux: treated/control ratio [3] | 5D3 staining: treated/control ratio [4] | activity at 10 min, 20 µM [5] [%] | Pgp inhibition, rhodamine efflux: treated/control ratio ([6]; human, 10 µM) | MRP1 inhibition, calcein efflux: treated/control ratio [7] | Pgp inhibition, rhodamine efflux: treated/control ratio ([6]; valspodar 3 μg/mL, positive control) | Structure (SMILES) | MX sensitization: % NCI-H460/MX20 cell survival in the presence of compound and mitoxantrone ([2]; 30 μM mitoxantrone, 2 d) [%] | IC50 [1] [µM] | Cell number, % of control, mitoxantrone alone ([2]; NCI-H460/MX20 cells, mitoxantrone treatment, (sd)) [%] | activity at 30 µM [8] [%] | Pheophorbide a total, % of FTC response ([1]; 10 μM compound, NCI-H460/MX20 cells, normalized to 10 μM FTC) [%] | MX sensitization: % NCI-H460/MX20 cell survival in the presence of FTC and mitoxantrone ([2]; 1 μM FTC, 30 μM mitoxantrone, 2 d) | Blocking of 125I-IAAP binding: % of control binding [5] [%] | IC50 [9] [µM] |
| --- | --- | --- | --- | --- | --- | --- | --- | --- | --- | --- | --- | --- | --- | --- | --- | --- |
| 3.9 | 104.5 | 2.6 | 3.7 | 34.2 | 0.64 | 0.81 |  | COc1cc2c[n+](C)c3c4cc(OC)c(OC)cc4ccc3c2cc1OC [NSC168201] | 21.2 |  |  |  |  |  |  |  |
|  | 63.8 | 3.6 | 3.2 | 48.7 | 0.84 | 1.8 |  | Cc1cc(O)nc2cc3oc4ccccc4c3cc12 [NSC375985] | 27.6 | 3.7 |  |  |  |  |  |  |
| 2.6 | 76.6 | 3.5 | 3.6 | 33.5 | 0.77 | 1.3 |  | Cn1ncc2c(NCCc3ccccc3)nc(Cl)nc21 [NSC19139] | 30.0 |  |  |  |  |  |  |  |
| 4.3 | 67.2 | 2.0 | 3.7 | 19.1 | 0.84 | 0.81 |  | O=C(O)c1ccc(/C=N/N=C2c3ccccc3-c3ccccc32)cc1 [NSC120688] | 20.9 |  |  |  |  |  |  |  |
